Measured values published in patent US20090203661A1, “Betulinic acid, derivatives and analogs thereof and uses therefor” (priority 2006, published 2009).

Key:
[1] = tested on: HT-29 cells; test: miR-27a and ZBTB10 mRNA expression in HT-29 cells; type: cell-based, human
[2] = tested on: p21 promoter; test: p21 promoter luciferase transactivation in Panc-28 cells; type: cell-based, human; conditions: for transactivation, p21-luc(Fl) (−2325 to +8): Panc-28; for effect of T007 on induced p21-luc(Fl) luciferase activity: cotreatment with T007
Method: Cells were seeded onto the 12-well plates and 0.4 μg of GAL4-Luc, 0.04 μg of β-GAL, 0.04 μg of GAL4DBD-PPARγ, and 0.4 μg of p21-luc(FL) containing −2325 to +8 insert, 0.4 μg of p21-luc (−124) containing −124 to +8 insert and 0.4 μg of p21-LUC (−60) containing −60 to +8 insert were transfected using LipofectAMINE reagent (Invitrogen) following the manufacturer's protocol. Cells were treated either with vehicle or respective compounds suspended in complete medium after 6 hr of transfection. Cell lysate is extracted after 20-22 hr by adding 100 μl of 1× reporter lysis buffer per well and 30 μl of this extract is used to quantitate the luciferase activity using Lumicount (Perkin-Elmer Life and Analytical Sciences). Each experiment is done in triplicate and the results are normalized to the β-GAL activity.

[3] = tested on: p21 promoter; test: Chromatin immunoprecipitation (ChIP) assay, p21 promoter, Panc-28 cells; type: cell-based, human; conditions: 5 μM, 1 or 2 hr
Method: Panc-28 cells were treated with the different compounds as indicated for 24 hr and whole cell lysates were obtained and analyzed by immunoblots. […] Cells were transfected with the various constructs, treated with DMSO, BA, CN-BA, CN-BA-Me alone or in combination with T007, and luciferase activity determined. Results of all transactivation studies in this Figure are presented as means±SE for at least three separate determinations for each treatment group. Significant (p<0.05) induction compared to solvent (DMSO) control (*) and inhibition by cotreatment with T007 (**) are indicated. FIGS. 10D-10F show chromatin immunoprecipitation assays. Primers designed for the proximal region of the p21 promoter (FIG. 10D) were used for a ChIP assay in Panc-28 cells (FIG. 10E) treated with DMSO, 5 μM BA, 5 μM CN-BA, and 5 μM CN-BA-Me for 1 or 2 hr. Analysis of interactions of Sp1 and PPARγ with the p21 promoter were carried out in the ChIP assay as described. The ChIP assay was also used to examine binding of TFIIB to the GAPDH promoter (positive control) (FIG. 10F) and to exon 1 of CNAP1 (negative control).
The ligand-dependent recruitment of PPARγ to the p21 promoter by CN-BA and CN-BA-Me was examined using a ChIP assay of Panc-28 cells treated with the betulinic acid, CN-BA and CN-BA-Me for 1 or 2 hr. […] This is consistent with receptor-independent activation of p21 by betulinic acid and the mechanism of this response is currently being investigated. As a control for this experiment, transcription factor TFIIb bound to the proximal region of the GAPDH gene promoter but not to exon-1 of the CNAP1 gene.

[4] = tested on: SW480 cells; test: Caveolin-1 expression (Western blot) in SW480 cells; type: cell-based, human; conditions: SW480, 72 hr
Method: SW480, HT-29, HCT-15 and Panc-28 (3×10^5) colon cancer cells were seeded in 6-well tissue culture plates in DMEM/Ham's F-12 medium containing 2.5% charcoal-stripped FBS. Protein is extracted from the cells treated either with vehicle or indicated compounds suspended for 24 hr except for caveolin-1 protein which was done for 72 hr. Samples were extracted in high salt buffer [50 mmol/L HEPES, 500 mmol/L NaCl, 1.5 mmol/L MgCl2, 1 mmol/L EGTA, 10% glycerol, and 1% Triton X-100 (pH 7.5), and 5 μL/mL protease inhibitor cocktail (Sigma-Aldrich)]. Samples were incubated at 100° C. for 2 min, separated on either 10% or 12% SDS-PAGE gels and then transferred to polyvinylidene difluoride membrane (PVDF; Bio-Rad, Hercules, Calif.). The PVDF membrane was blocked in 5% TBST-Blotto (10 mM Tris HCl, 150 mM NaCl, pH 8.0, 0.05% Triton X-100, and 5% nonfat dry milk) for about 30 min and was then incubated in fresh 5% TBST-Blotto with 1:1000 for caveolin-1 (Santa Cruz Biotechnology, Santa Cruz, Calif.), 1:1000 for p21 (BD Pharmingen, Frank lakes, NJ) and 1:10000 for β-actin (Sigma) primary antibody overnight with gentle shaking at 4° C. After washing with TBST for 10 min, the membrane was incubated with respective secondary antibody (1:5000) (Santa cruz, Calif.) in 5% TBST-Blotto for 3 hr. The membrane is then washed with TBST for 10 min, incubated with chemiluminiscence reagent from Perkin Elmer for one min and then exposed to Kodak X-OMAT AR autoradiography film (Eastman Kodak, Rochester, N.Y.).

[5] = tested on: RKO colon cancer cells; test: Western blot of proapoptotic responses and Sp proteins in RKO cells; type: cell-based
Method: RKO cells were […] with BA or CN-BA for 24 hr and whole cell lysates were examined by Western blot analysis.
RKO colon cancer cells were treated with BA/CN-BA for 24 hr (FIG. 15A) or 48 hr (FIG. 15B) and Miapaca-2 pancreatic cancer cells were treated with BA/CN-BA for 24 hr (FIG. 15C). Whole cell lysates were examined by Western blot analysis.

[6] = tested on: LNCaP cells; test: Western blot analysis of protein expression in LNCaP cells; type: cell-based, Human
Method: Human carcinoma cell lines LNCaP (prostate) and SK-MEL2 (melanoma) were obtained from American Type Culture Collection (Manassas, Va.). Cell lines were maintained in RPMI 1640 (Sigma) supplemented with 0.22% sodium bicarbonate, 0.011% sodium pyruvate, 0.45% glucose, 0.24% HEPES, 10% FBS, and 10 mL/L of 100× Antibiotic Antimycotic solution (Sigma). Cells were maintained at 37° C. in the presence of 5% CO2.
An equal amount of cell lysate (60 μg/well) was separated by 7.5% to 12% SDS-PAGE, which was followed by immunoblotting onto polyvinylidene difluoride (Bio-Rad, Hercules, Calif.). After blocking in TBST-Blotto (10 mmol/L Tris-HCl, 150 mmol/L NaCl (pH 8.0), 0.05% Triton X-100, 5% nonfat dry milk) for 30 min, the membranes were incubated with primary antibodies overnight at 4° C. and then with horseradish peroxidase-conjugated secondary antibody for 2 hr at room temperature. Proteins were visualized using the chemiluminescence substrate (Perkin-Elmer Life Sciences) for 1 min and exposed to Kodak X-OMAT AR autoradiography film (Eastman Kodak, Rochester, N.Y.).

SMILES | ZBTB10 expression [1] | miR-27a expression [1] | transactivation, p21-luc(Fl) (−2325 to +8) [2] | concentration giving significant induction of p21-luc(60) ([2]; construct lacking GC-rich sites 3 and 4) | effect of T007 on induced p21-luc(Fl) luciferase activity [2] | Sp1 binding to p21 promoter [3] | recruitment of PPARγ to proximal GC-rich region of p21 promoter [3] | caveolin-1 induction [4] | caveolin-1 protein level [4] | Sp protein expression ([5]; 24 and 48 hr) | ATF3, JNK phosphorylation, CHOP and DR5 ([5]; 24 hours) | proapoptotic responses ([5]; 24 hours) | concentrations inducing tumor suppressor gene KLF6 [6] | treatment time at which lower expression of Sp proteins is first observed ([6]; 15 μM) | lowest doses at which Sp protein degradation and PARP cleavage are observed ([6]; 48 or 72 hr) | concentration inducing downregulation of Sp1, Sp3 and Sp4 proteins ([6]; 24 hr) | concentration inducing downregulation of cyclin D1 ([6]; 24 hr exposure) | concentrations decreasing Sp proteins ([5]; 48 hr)
CC(C)C1CCC2(C(=O)O)CCC3(C)C(CCC4C5(C)C=C(C#N)C(=O)C(C)(C)C5CCC43C)C12 (centres unmarked) [CN-BA] | increased expression of ZBTB10 | decreased expression of miR-27a | induce transactivation | 7.5 µM | inhibited | enhanced binding of Sp1 | recruited PPARγ | did not induce caveolin-1 expression | decreased expression | decrease Sp protein expression | activate | activate proapoptotic responses |  |  |  |  |  | 
COC(=O)C12CCC(C(C)C)C1C1CCC3C4(C)C=C(C#N)C(=O)C(C)(C)C4CCC3(C)C1(C)CC2 (centres unmarked) [CN-BA-Me, Methyl 2-cyano-lup-1-en-3-oxo-20-oate] | increased expression of ZBTB10 | decreased expression of miR-27a | induce transactivation |  | inhibited | enhanced binding of Sp1 | recruited PPARγ | did not induce caveolin-1 expression | decreased expression |  |  |  |  |  |  |  |  | 
C=C(C)[C@@H]1CC[C@]2(C(=O)O)CC[C@]3(C)[C@H](CC[C@@H]4[C@@]5(C)CC[C@H](O)C(C)(C)[C@@H]5CC[C@]43C)[C@@H]12 [betulinic acid, Betulinic acid] |  |  |  |  |  |  |  |  |  |  |  |  | 10 to 15 µM | 12 h | 1 to 2.5 µM | 5 to 10 µM | ≥ 10 µM | 1 to 5 µM
